Square brackets hold non-standard residues; d marks the D form. Ends that are not written are not given here. pS = N[C@@H](COP(=O)(O)O)C(=O)O
Legend:
[1] = test system: unexpanded lymphocyte cultures (CD8^+ T cells); assay: ICS for MHC-I-pP reactivity of lymphocyte cultures without expansion (Table 23, No Expansion)
CD8^+ T cells (PBMCs) = assay: Intracellular cytokine staining (ICS) of PBMCs after 7 days of stimulation with MHC-I-pP (healthy donors, HH patients); type: cell-based, human; settings: for Reactive CD8^+ T cell population, HH2: HH patient HH2; for Reactive CD8^+ T cell population, HH3: HH patient HH3; for Reactive CD8^+ T cell population, HH6: HH patient HH6; for Reactive CD8^+ T cell population, HH8: HH patient HH8; for Reactive CD8^+ T cell population, HH10: HH patient HH10; for Reactive CD8^+ T cell population, HH11: HH patient HH11; for Reactive CD8^+ T cell population, HD1: Healthy donor HD1; for Reactive CD8^+ T cell population, HD2: Healthy donor HD2; for Reactive CD8^+ T cell population, HD3: Healthy donor HD3; for Reactive CD8^+ T cell population, HD4: Healthy donor HD4; for Reactive CD8^+ T cell population, HD5: Healthy donor HD5
Outline: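 PBMCs or liver lymphocytes from HLA-A*0201-positive healthy donors and hereditary hemochromatosis patients were stimulated for 7 days with HLA-A*0201-restricted phosphopeptides and no added cytokines. After exclusion of doublets and dead cells with a fixable viability dye, CD3^+CD8^+ cells were analysed by intracellular staining for IFN-γ and TNF-α, plus CD107a where needed.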

[2] = test system: expanded TIL / IHL cultures; assay: ICS for MHC-I-pP reactivity of liver-derived lymphocyte cultures after unspecific rapid expansion protocol (REP); type: cell-based, human
[3] = test system: expanded lymphocyte cultures from deceased donor livers, cirrhotic livers and HCC; assay: ICS for MHC-I-pP reactivity of liver-derived lymphocyte cultures after phosphopeptide-specific expansion; type: cell-based, human; settings: for ppCTL response, Deceased Donor Liver Do 2 / ppCTL response, Deceased Donor Liver Do 3 / ppCTL response, Deceased Donor Liver Do 4 / ppCTL response, Deceased Donor Liver Do 6 / ppCTL response, End-stage Liver Cirrhosis IHL 11 / ppCTL response, End-stage Liver Cirrhosis IHL 12 / ppCTL response, End-stage Liver Cirrhosis IHL 13 / ppCTL response, End-stage Liver Cirrhosis IHL 15 / ppCTL response, HCC Distal HCC 1 / ppCTL response, HCC Tumor HCC 1 / ppCTL response, HCC Distal HCC 4 / ppCTL response, HCC Distal HCC 9 / ppCTL response, HCC Tumor HCC 9 / ppCTL response, HCC Distal HCC 12: pP-specifically expanded culture; for ppCTL response, HCC Distal HCC 1: HCC 1 Distal; for ppCTL response, HCC Tumor HCC 1: HCC 1 Tumor; for ppCTL response, HCC Distal HCC 4: HCC 4 Distal; for ppCTL response, HCC Distal HCC 9: HCC 9 Distal; for ppCTL response, HCC Tumor HCC 9: HCC 9 Tumor; for ppCTL response, HCC Distal HCC 12: HCC 12 Distal

Row | Substance | Reactive CD8^+ T cells, No Expansion, Do4 [1] | Reactive CD8^+ T cells, No Expansion, HH6 [1] | Reactive CD8^+ T cell population, HH2 (CD8^+ T cells (PBMCs)) | Reactive CD8^+ T cell population, HH3 (CD8^+ T cells (PBMCs)) | Reactive CD8^+ T cell population, HH6 (CD8^+ T cells (PBMCs)) | Reactive CD8^+ T cell population, HH8 (CD8^+ T cells (PBMCs)) | Reactive CD8^+ T cell population, HH10 (CD8^+ T cells (PBMCs)) | Reactive CD8^+ T cell population, HH11 (CD8^+ T cells (PBMCs)) | Reactive CD8^+ T cell population, HD1 (CD8^+ T cells (PBMCs)) | Reactive CD8^+ T cell population, HD2 (CD8^+ T cells (PBMCs)) | Reactive CD8^+ T cell population, HD3 (CD8^+ T cells (PBMCs)) | Reactive CD8^+ T cell population, HD4 (CD8^+ T cells (PBMCs)) | Reactive CD8^+ T cell population, HD5 (CD8^+ T cells (PBMCs)) | Reactive CD8^+ T cells, Non-specific Expansion, Do2 [2] | Reactive CD8^+ T cells, Non-specific Expansion, Do4 [2] | Reactive CD8^+ T cells, Non-specific Expansion, HH6 [2] | Reactive CD8^+ T cells, pP-specific Expansion, Do2 [3] | Reactive CD8^+ T cells, pP-specific Expansion, Do4 [3] | Reactive CD8^+ T cells, pP-specific Expansion, HH6 [3] | ppCTL response, Deceased Donor Liver Do 2 [3] | other results
1 | NLVPMVATV (Cytomegalovirus) [reference compound] | 2 (2.5-5.0% reactive CD8^-+ T cells) | 1 (0.25-2.5% reactive CD8^-+ T cells) | 4 (7.5-10% reactive CD8^-+ T cells) | 0 (<0.25% reactive CD8^-+ T cells) | 1 (0.25-2.5% reactive CD8^-+ T cells) | 1 (0.25-2.5% reactive CD8^-+ T cells) | 3 (5-7.5% reactive CD8^-+ T cells) | 0 (<0.25% reactive CD8^-+ T cells) | 0 (<0.25% reactive CD8^-+ T cells) | 0 (<0.25% reactive CD8^-+ T cells) | 0 (<0.25% reactive CD8^-+ T cells) | 0 (<0.25% reactive CD8^-+ T cells) | 0 (<0.25% reactive CD8^-+ T cells) | 0 (<0.25% reactive CD8^-+ T cells) | 5 (10-20% reactive CD8^-+ T cells) | 1 (0.25-2.5% reactive CD8^-+ T cells) | 3 (5-7.5% reactive CD8^-+ T cells) | 2 (2.5-5.0% reactive CD8^-+ T cells) | 3 (5-7.5% reactive CD8^-+ T cells) | 3 (5-7.5% reactive CD8-+ T cells) | ppCTL response, Deceased Donor Liver Do 3 [3]: 0 (<0.25% reactive CD8-+ T cells); ppCTL response, Deceased Donor Liver Do 4 [3]: 2 (2.5-5.0% reactive CD8-+ T cells); ppCTL response, Deceased Donor Liver Do 6 [3]: 0 (<0.25% reactive CD8-+ T cells); ppCTL response, End-stage Liver Cirrhosis IHL 11 [3]: 0 (<0.25% reactive CD8-+ T cells); ppCTL response, End-stage Liver Cirrhosis IHL 12 [3]: 0 (<0.25% reactive CD8-+ T cells); ppCTL response, End-stage Liver Cirrhosis IHL 13 [3]: 0 (<0.25% reactive CD8-+ T cells); ppCTL response, End-stage Liver Cirrhosis IHL 15 [3]: 0 (<0.25% reactive CD8-+ T cells); ppCTL response, HCC Distal HCC 1 [3]: 1 (0.25-2.5% reactive CD8-+ T cells); ppCTL response, HCC Tumor HCC 1 [3]: 0 (<0.25% reactive CD8-+ T cells); ppCTL response, HCC Distal HCC 4 [3]: 0 (<0.25% reactive CD8-+ T cells); ppCTL response, HCC Distal HCC 9 [3]: 0 (<0.25% reactive CD8-+ T cells); ppCTL response, HCC Tumor HCC 9 [3]: 0 (<0.25% reactive CD8-+ T cells); ppCTL response, HCC Distal HCC 12 [3]: 0 (<0.25% reactive CD8-+ T cells)
2 | VMIGsPKKV: TNS3 phosphopeptide, HLA-A*0201 (VMIG[pS]PKKV; listed as Homo sapiens) | 0 (<0.25% reactive CD8^-+ T cells) | 0 (<0.25% reactive CD8^-+ T cells) | 0 (<0.25% reactive CD8^-+ T cells) | 0 (<0.25% reactive CD8^-+ T cells) | 0 (<0.25% reactive CD8^-+ T cells) | 0 (<0.25% reactive CD8^-+ T cells) | 1 (0.25-2.5% reactive CD8^-+ T cells) | 0 (<0.25% reactive CD8^-+ T cells) | 0 (<0.25% reactive CD8^-+ T cells) | 0 (<0.25% reactive CD8^-+ T cells) | 0 (<0.25% reactive CD8^-+ T cells) | 0 (<0.25% reactive CD8^-+ T cells) | 0 (<0.25% reactive CD8^-+ T cells) | 0 (<0.25% reactive CD8^-+ T cells) | 0 (<0.25% reactive CD8^-+ T cells) | 0 (<0.25% reactive CD8^-+ T cells) | 1 (0.25-2.5% reactive CD8^-+ T cells) | 0 (<0.25% reactive CD8^-+ T cells) | 0 (<0.25% reactive CD8^-+ T cells) | 2 (2.5-5.0% reactive CD8-+ T cells) | ppCTL response, Deceased Donor Liver Do 3 [3]: 0 (<0.25% reactive CD8-+ T cells); ppCTL response, Deceased Donor Liver Do 4 [3]: 0 (<0.25% reactive CD8-+ T cells); ppCTL response, Deceased Donor Liver Do 6 [3]: 0 (<0.25% reactive CD8-+ T cells); ppCTL response, End-stage Liver Cirrhosis IHL 11 [3]: 0 (<0.25% reactive CD8-+ T cells); ppCTL response, End-stage Liver Cirrhosis IHL 12 [3]: 0 (<0.25% reactive CD8-+ T cells); ppCTL response, End-stage Liver Cirrhosis IHL 13 [3]: 0 (<0.25% reactive CD8-+ T cells); ppCTL response, End-stage Liver Cirrhosis IHL 15 [3]: 0 (<0.25% reactive CD8-+ T cells); ppCTL response, HCC Distal HCC 1 [3]: 0 (<0.25% reactive CD8-+ T cells); ppCTL response, HCC Tumor HCC 1 [3]: 0 (<0.25% reactive CD8-+ T cells); ppCTL response, HCC Distal HCC 4 [3]: 0 (<0.25% reactive CD8-+ T cells); ppCTL response, HCC Distal HCC 9 [3]: 0 (<0.25% reactive CD8-+ T cells); ppCTL response, HCC Tumor HCC 9 [3]: 0 (<0.25% reactive CD8-+ T cells); ppCTL response, HCC Distal HCC 12 [3]: 0 (<0.25% reactive CD8-+ T cells)
